Measurements published in patent US9877980B2, “Method and composition for treatment or prevention of type 2 diabetes and hyperlipidemia” (Chun-Ching Shih, priority 2016, dated 2018).
Marks after values point to notes of the source that are not given here.

Legend:
Format in all cases: in vivo
[1] = system: epididymal adipocyte of HFD mice; assay: Histology of epididymal white adipose tissue (adipocyte hypertrophy); details: 4 weeks, three measurements
Procedure: (§1) The following experiment was performed and approved by the guidelines of the Institutional Animal Care and Use Committee of Central Taiwan University of Science and Technology. The 4-week old male C57BL/6J mice (total amount n=63) were purchased from the National Laboratory Animal Breeding and Research Center (Taipei, Taiwan). After acclimatization for one week, all of the mice were divided randomly into the control (CON) group and the high-fat diet (HFD) group. For the following 12 weeks, the CON group (n=9) was kept on a low-fat diet (Diet 12450B, Research Diets, Inc., New Brunswick, N.J., USA), while the HFD group (n=54) was exposed to a high-fat diet (Diet 12451, Research Diets, New Brunswick, N.J., USA). The low-fat diet was composed of protein 20%, carbohydrate 70% and fat 10%, whereas the high-fat diet was composed of protein 20%, carbohydrate 35%, and fat 45% (of total energy, % kcal). After HFD exposure for 8 weeks, the HFD group was further randomly subdivided into 6 groups (n=9 per group) to receive different treatments by oral gavage once daily for four weeks and on HFD. […] The HF+B1, HF+B2, and […] are collectively termed BB-treated HFD groups in the following examples. The CON mice were administered vehicle. After dosing for 4 weeks, the mice were given no food at night and sacrificed after 12 h of fasting on the next day. All of the individual tissues were collected and weighed, and portions were instantly frozen using liquid nitrogen and kept at −80° C. for subsequent target gene analysis. Blood samples (0.8 mL) were collected for analysis of blood parameters.
Small pieces of epididymal white adipose tissue and liver tissue were fixed with formalin (200 g/kg) neutral buffered solution and embedded in paraffin. Sections of 8 μm […] were cut and stained with hematoxylin and eosin. For microscopic examination, a microscope (Leica, DM2500) was used, and the images were taken using a Leica Digital Camera (DFC-425-C).
Adipocyte hypertrophy, the pathological enlargement of adipocytes, is often found in subjects with type 2 diabetes and hyperlipidemia. To verify the therapeutic effect of the compound of formula I on adipocyte hypertrophy, morphology of the EWAT for the CON group and the BB-treated HFD groups was examined. Micrographs of the EWAT sections for each group were analyzed to determine the mean area of an epididymal adipocyte using the software ImageJ.

[2] = system: C57BL/6J mice on high-fat diet (HFD); assay: Absolute tissue weight, body weight, weight gain and food intake in HFD mice; details: 4 weeks
Procedure: as §1
Body weight of each mouse was monitored and measured daily at the same time throughout the experimentation. The difference in body weight between two consecutive days is defined as body weight gain. The food pellets for mice were weighed and put into the food container. Unconsumed pellets of high-fat diet were discarded each day and fresh pellets of high-fat diet were provided to ensure food quality throughout the experimentation. The high-fat food pellets were stored at 4° C.

adiponectin = assay: Semi-quantitative RT-PCR of liver mRNA: adiponectin; details: HFD mice; 40 mg/kg/day oral gavage, 4 weeks; vs HF group
Procedure: The following experiment was performed and approved by the guidelines of the Institutional Animal Care and Use Committee of Central Taiwan University of Science and Technology. The 4-week old male C57BL/6J mice (total amount n=63) were purchased from the National Laboratory Animal Breeding and Research Center (Taipei, Taiwan). After acclimatization for one week, all of the mice were divided randomly into the control (CON) group and the high-fat diet (HFD) group. […] After HFD exposure for 8 weeks, the HFD group was further randomly subdivided into 6 groups (n=9 per group) to receive different treatments by oral gavage once daily for four weeks and on HFD. […] The HF+B1, HF+B2, and […] are collectively termed BB-treated HFD groups in the following examples. […]
Total RNA from liver tissue of mice was isolated with a Trizol Reagent (Molecular Research Center, Inc., Cincinnati, Ohio, USA) according to the manufacturer's instructions. The integrity of the extracted total RNA was examined by 2% agarose gel electrophoresis, and the RNA concentration was determined by the ultraviolet (UV) light absorbency at 260 nm and 280 nm (Spectrophotometer U-2800A, Hitachi). […]
Levels of mRNA of genes of interest were quantified by semi-quantitative reverse transcription polymerase chain reaction (RT-PCR). […] PCR products were analyzed by 2% agarose gels and stained with ethidium bromide.

Q: For `OCC1O[C@@H](O[C@@H]2Cc3c(O)cc(O)cc3O[C@@H]2c2ccc(O)c(O)c2)C(O)C(O)[C@@H]1O` (single isomer, unassigned; (-)) [compound of formula I, (−)-epicatechin-3-O-β-D-allopyranoside], which “mean area of an epididymal adipocyte” value ([1]; 10 mg/kg/day oral gavage) is on record?
A: 6882.8±102.2 μm^2

Q: What about the “mean area of an epididymal adipocyte” value ([1]; 20 mg/kg/day oral gavage) of the same compound?
A: 6475.5±102.6 μm^2

Q: What about the “mean area of an epididymal adipocyte” value ([1]; 40 mg/kg/day oral gavage) of the same compound?
A: 6192.7±100.7 μm^2

Q: And the “Absolute tissue weight BAT” value ([2]; 10 mg/kg/day oral gavage)?
A: 0.168 ± 0.011 g

Q: And the “Absolute tissue weight EWAT” value ([2]; 10 mg/kg/day oral gavage)?
A: 0.906 ± 0.105^d g

Q: What about the “Absolute tissue weight Liver” value ([2]; 10 mg/kg/day oral gavage) of the same compound?
A: 0.899 ± 0.036 g

Q: And the “Absolute tissue weight MWAT” value ([2]; 10 mg/kg/day oral gavage)?
A: 0.293 ± 0.018 g

Q: And the “Absolute tissue weight RWAT” value ([2]; 10 mg/kg/day oral gavage)?
A: 0.280 ± 0.043^d g

Q: What about the “Absolute tissue weight Skeletal muscle” value ([2]; 10 mg/kg/day oral gavage) of the same compound?
A: 0.873 ± 0.060 g

Q: What about the “Absolute tissue weight Visceral fat” value ([2]; 10 mg/kg/day oral gavage) of the same compound?
A: 1.273 ± 0.147^d g

Q: What about the Body weight ([2]; 10 mg/kg/day oral gavage) of the same compound?
A: 27.85 ± 1.04 g

Q: And the Food intake ([2]; 10 mg/kg/day oral gavage)?
A: 2.08 ± 0.05 g/day/mouse

Q: And the Weight gain ([2]; 10 mg/kg/day oral gavage)?
A: 0.40 ± 0.28 g

Q: And the “Absolute tissue weight BAT” value ([2]; 20 mg/kg/day oral gavage)?
A: 0.156 ± 0.017 g

Q: And the “Absolute tissue weight EWAT” value ([2]; 20 mg/kg/day oral gavage)?
A: 0.902 ± 0.084^d g

Q: And the “Absolute tissue weight Liver” value ([2]; 20 mg/kg/day oral gavage)?
A: 0.866 ± 0.036 g

Q: What about the “Absolute tissue weight MWAT” value ([2]; 20 mg/kg/day oral gavage) of the same compound?
A: 0.267 ± 0.021 g

Q: And the “Absolute tissue weight RWAT” value ([2]; 20 mg/kg/day oral gavage)?
A: 0.263 ± 0.034^f g

Q: And the “Absolute tissue weight Skeletal muscle” value ([2]; 20 mg/kg/day oral gavage)?
A: 0.813 ± 0.077 g

Q: And the “Absolute tissue weight Visceral fat” value ([2]; 20 mg/kg/day oral gavage)?
A: 1.199 ± 0.104^e g

Q: And the Body weight ([2]; 20 mg/kg/day oral gavage)?
A: 27.88 ± 1.14 g

Q: And the Food intake ([2]; 20 mg/kg/day oral gavage)?
A: 2.03 ± 0.03 g/day/mouse

Q: And the Weight gain ([2]; 20 mg/kg/day oral gavage)?
A: 0.61 ± 0.43 g

Q: And the “Absolute tissue weight BAT” value ([2]; 40 mg/kg/day oral gavage)?
A: 0.144 ± 0.010 g

Q: And the “Absolute tissue weight EWAT” value ([2]; 40 mg/kg/day oral gavage)?
A: 0.936 ± 0.075^d g

Q: And the “Absolute tissue weight Liver” value ([2]; 40 mg/kg/day oral gavage)?
A: 0.848 ± 0.028 g

Q: And the “Absolute tissue weight MWAT” value ([2]; 40 mg/kg/day oral gavage)?
A: 0.236 ± 0.030 g

Q: What about the “Absolute tissue weight RWAT” value ([2]; 40 mg/kg/day oral gavage) of the same compound?
A: 0.233 ± 0.026^f g

Q: And the “Absolute tissue weight Skeletal muscle” value ([2]; 40 mg/kg/day oral gavage)?
A: 1.156 ± 0.102^d g

Q: And the “Absolute tissue weight Visceral fat” value ([2]; 40 mg/kg/day oral gavage)?
A: 1.198 ± 0.075^e g

Q: And the Body weight ([2]; 40 mg/kg/day oral gavage)?
A: 27.15 ± 0.84 g

Q: What about the Food intake ([2]; 40 mg/kg/day oral gavage) of the same compound?
A: 2.02 ± 0.03 g/day/mouse

Q: What about the Weight gain ([2]; 40 mg/kg/day oral gavage) of the same compound?
A: −0.05 ± 0.11^d g

Q: What about the “liver adiponectin mRNA level” value (adiponectin) of the same compound?
A: enhanced
